Source: ChEMBL document CHEMBL3885861, “Open TG-GATES”

Species on record: Rattus norvegicus
Experiment: Open TG-GATES - Regimen: Single
Assay type: toxicity, organism-based, Sprague-Dawley
Parameters: regimen Single, gender Male, age 6 weeks
Conditions: in vivo, po, 5 mg/kg, route gavage; for TG / TP / gamma-GTP / A/G / ALP / ALT / AST / BUN / CRE / Ca / Cl / DBIL / GLC / IP / K / LDH / Na / PL / RALB / TBIL / TC: tissue Plasma; for APTT / Bas / Eos / Fbg / Hb / Ht / Lym / MCH / MCHC / MCV / Mono / Neu / PT / Plat / RBC / Ret / WBC: tissue Blood; for KIDNEY_L / KIDNEY_R / KIDNEY_TOTAL: tissue Kidney; for LIVER: tissue Liver

`COc1ccc2c(c1)c(CC(=O)O)c(C)n2C(=O)c1ccc(Cl)cc1` [INDOMETHACIN] was tested, and the TG (3 h, dose level Low) was 59.6 mg/dL, the TP (3 h, dose level Low) was 5.4 g/dL and the gamma-GTP (3 h, dose level Low) was 1 IU/L. For the same compound, the TERMINAL_BW (6 h, dose level High) was 202.4 g, the TERMINAL_BW (6 h, dose level Low) was 222.1 g and the APTT (6 h, dose level High) was 16.9 s. It also gave a Bas (6 h, dose level High) of 0%, an Eos (6 h, dose level High) of 0.8% and a Fbg (6 h, dose level High) of 205.2 mg/dL. For the same compound, the Hb (6 h, dose level High) was 12.7 g/dL, the Ht (6 h, dose level High) was 38.6% and the Lym (6 h, dose level High) was 69.4%. It also gave an MCH (6 h, dose level High) of 21.3 pg, an MCHC (6 h, dose level High) of 32.8% and an MCV (6 h, dose level High) of 64.9 fL. The Mono (6 h, dose level High) was 13%, the Neu (6 h, dose level High) was 16.8% and the PT (6 h, dose level High) was 12.8 s. For the same compound, the Plat (6 h, dose level High) was 112.7 x10_4/uL, the RBC (6 h, dose level High) was 594.6 x10_4/ul and the Ret (6 h, dose level High) was 10.3%. For the same compound, the WBC (6 h, dose level High) was 87.2 x10_2/uL, the APTT (6 h, dose level Low) was 18.4 s and the Eos (6 h, dose level Low) was 0.4%. The Fbg (6 h, dose level Low) was 230 mg/dL, the Hb (6 h, dose level Low) was 13.9 g/dL and the Ht (6 h, dose level Low) was 38%. It also gave a Lym (6 h, dose level Low) of 79.6%, an MCH (6 h, dose level Low) of 22.6 pg and an MCHC (6 h, dose level Low) of 36.4%. For the same compound, the MCV (6 h, dose level Low) was 62 fL, the Mono (6 h, dose level Low) was 2.8% and the Neu (6 h, dose level Low) was 15.4%. It also gave a PT (6 h, dose level Low) of 12.4 s, a Plat (6 h, dose level Low) of 118.2 x10_4/uL and an RBC (6 h, dose level Low) of 613.2 x10_4/ul. For the same compound, the Ret (6 h, dose level Low) was 8%, the WBC (6 h, dose level Low) was 100.8 x10_2/uL and the KIDNEY_L (6 h, dose level High) was 0.9 g. It also gave a KIDNEY_R (6 h, dose level High) of 0.9 g, a KIDNEY_TOTAL (6 h, dose level High) of 1.9 g and a KIDNEY_L (6 h, dose level Low) of 1 g. It also gave a KIDNEY_R (6 h, dose level Low) of 1 g, an LIVER (6 h, dose level High) of 9 g and an LIVER (6 h, dose level Low) of 9.1 g. For the same compound, the A/G (6 h, dose level High) was 1.9, the ALP (6 h, dose level High) was 908.6 IU/L and the ALT (6 h, dose level High) was 35.6 IU/L. The AST (6 h, dose level High) was 69 IU/L, the BUN (6 h, dose level High) was 13.6 mg/dL and the CRE (6 h, dose level High) was 0.5 mg/dL. For the same compound, the Ca (6 h, dose level High) was 10.2 mg/dL, the Cl (6 h, dose level High) was 108.2 meq/L and the DBIL (6 h, dose level High) was 0.014 mg/dL. The GLC (6 h, dose level High) was 194.8 mg/dL, the IP (6 h, dose level High) was 9.4 mg/dL and the K (6 h, dose level High) was 5.1 meq/L. It also gave an LDH (6 h, dose level High) of 186.4 IU/L, a Na (6 h, dose level High) of 137.4 meq/L and a PL (6 h, dose level High) of 120 mg/dL. The RALB (6 h, dose level High) was 3.8 g/dL, the TBIL (6 h, dose level High) was 0.3 mg/dL and the TC (6 h, dose level High) was 68.4 mg/dL. It also gave a TG (6 h, dose level High) of 48 mg/dL, a TP (6 h, dose level High) of 5.8 g/dL and a gamma-GTP (6 h, dose level High) of 1.2 IU/L. It also gave an A/G (6 h, dose level Low) of 1.5, an ALP (6 h, dose level Low) of 938.4 IU/L and an ALT (6 h, dose level Low) of 36.2 IU/L. The AST (6 h, dose level Low) was 75.8 IU/L, the BUN (6 h, dose level Low) was 12 mg/dL and the CRE (6 h, dose level Low) was 0.4 mg/dL. For the same compound, the Ca (6 h, dose level Low) was 10.4 mg/dL, the Cl (6 h, dose level Low) was 103.2 meq/L and the DBIL (6 h, dose level Low) was 0.076 mg/dL. For the same compound, the GLC (6 h, dose level Low) was 197.2 mg/dL, the IP (6 h, dose level Low) was 9.2 mg/dL and the K (6 h, dose level Low) was 4 meq/L. It also gave an LDH (6 h, dose level Low) of 231 IU/L, a Na (6 h, dose level Low) of 140.8 meq/L and a PL (6 h, dose level Low) of 135.2 mg/dL. For the same compound, the RALB (6 h, dose level Low) was 3.3 g/dL, the TBIL (6 h, dose level Low) was 0.1 mg/dL and the TC (6 h, dose level Low) was 77.4 mg/dL. It also gave a TG (6 h, dose level Low) of 62.8 mg/dL, a TP (6 h, dose level Low) of 5.4 g/dL and a gamma-GTP (6 h, dose level Low) of 0.8 IU/L. For the same compound, the TERMINAL_BW (9 h, dose level High) was 198.4 g, the TERMINAL_BW (9 h, dose level Low) was 221 g and the APTT (9 h, dose level High) was 16.9 s. It also gave a Bas (9 h, dose level High) of 0%, an Eos (9 h, dose level High) of 0.6% and a Fbg (9 h, dose level High) of 213.6 mg/dL. It also gave a Hb (9 h, dose level High) of 13.2 g/dL, a Ht (9 h, dose level High) of 39.6% and a Lym (9 h, dose level High) of 84.2%. The MCH (9 h, dose level High) was 21.6 pg, the MCHC (9 h, dose level High) was 33.3% and the MCV (9 h, dose level High) was 65 fL. It also gave a Mono (9 h, dose level High) of 7.8%, a Neu (9 h, dose level High) of 7.4% and a PT (9 h, dose level High) of 12.6 s. The Plat (9 h, dose level High) was 102.6 x10_4/uL, the RBC (9 h, dose level High) was 609.4 x10_4/ul and the Ret (9 h, dose level High) was 9.6%. The WBC (9 h, dose level High) was 107 x10_2/uL, the APTT (9 h, dose level Low) was 18.2 s and the Eos (9 h, dose level Low) was 0.4%. For the same compound, the Fbg (9 h, dose level Low) was 228.6 mg/dL, the Hb (9 h, dose level Low) was 13.7 g/dL and the Ht (9 h, dose level Low) was 37.7%. For the same compound, the Lym (9 h, dose level Low) was 76.4%, the MCH (9 h, dose level Low) was 22.2 pg and the MCHC (9 h, dose level Low) was 36.4%. It also gave an MCV (9 h, dose level Low) of 60.8 fL, a Mono (9 h, dose level Low) of 3% and a Neu (9 h, dose level Low) of 18%. For the same compound, the PT (9 h, dose level Low) was 12.2 s, the Plat (9 h, dose level Low) was 126.8 x10_4/uL and the RBC (9 h, dose level Low) was 620.4 x10_4/ul. For the same compound, the Ret (9 h, dose level Low) was 7.9%, the WBC (9 h, dose level Low) was 86 x10_2/uL and the KIDNEY_L (9 h, dose level High) was 0.9 g. The KIDNEY_R (9 h, dose level High) was 0.9 g, the KIDNEY_TOTAL (9 h, dose level High) was 1.9 g and the KIDNEY_R (9 h, dose level Low) was 1 g. It also gave an LIVER (9 h, dose level High) of 8.1 g, an LIVER (9 h, dose level Low) of 8.6 g and an A/G (9 h, dose level High) of 2.5. It also gave an ALP (9 h, dose level High) of 961.6 IU/L, an ALT (9 h, dose level High) of 34.6 IU/L and an AST (9 h, dose level High) of 66 IU/L. For the same compound, the BUN (9 h, dose level High) was 12.6 mg/dL, the CRE (9 h, dose level High) was 0.5 mg/dL and the Ca (9 h, dose level High) was 10.1 mg/dL. For the same compound, the Cl (9 h, dose level High) was 105.6 meq/L, the DBIL (9 h, dose level High) was 0.042 mg/dL and the GLC (9 h, dose level High) was 183.4 mg/dL. The IP (9 h, dose level High) was 9.8 mg/dL, the K (9 h, dose level High) was 5.3 meq/L and the LDH (9 h, dose level High) was 192.8 IU/L. It also gave a Na (9 h, dose level High) of 137.2 meq/L, a PL (9 h, dose level High) of 117 mg/dL and an RALB (9 h, dose level High) of 3.9 g/dL. The TBIL (9 h, dose level High) was 0.5 mg/dL, the TC (9 h, dose level High) was 65.6 mg/dL and the TG (9 h, dose level High) was 34.4 mg/dL. It also gave a TP (9 h, dose level High) of 5.4 g/dL.
